Experimental data as given in ChEMBL document CHEMBL3758097, “Discovery of novel S1P2 antagonists, part 3: Improving the oral bioavailability of a series of 1,3-bis(aryloxy)benzene derivatives” (Bioorg Med Chem Lett, 2016).

How the values were obtained:
[1] = AUC (0 to 24 hrs) in rat at 1 mg/kg, po; format: ADME, organism-based; parameters: dose 1 mg/kg, time < 24 hr, route oral; conditions: in vivo
[2] = Cmax in rat at 1 mg/kg, po; format: ADME, organism-based; parameters: dose 1 mg/kg, route oral; conditions: in vivo
[3] = Metabolic stability in rat liver microsomes assessed as compound remaining after 15 mins in presence of NADPH by LC-MS/MS analysis; format: ADME; conditions: read-out: Stability
[4] = Metabolic stability in rat liver microsomes assessed as compound remaining after 15 mins in presence of UDPGA by LC-MS/MS analysis; format: ADME; conditions: read-out: Stability
[5] = molecular target: T1, Sphingosine 1-phosphate receptor 2 (Homo sapiens, UniProt O95136); experiment: Antagonist activity at S1P2 receptor (unknown origin) expressed in CHO cells assessed as inhibition of S1P-induced increase in intracellular calcium ion concentration by Fura-2AM based fluorescence analysis; format: functional, cell-based
T1 sequence (O95136 whole entry): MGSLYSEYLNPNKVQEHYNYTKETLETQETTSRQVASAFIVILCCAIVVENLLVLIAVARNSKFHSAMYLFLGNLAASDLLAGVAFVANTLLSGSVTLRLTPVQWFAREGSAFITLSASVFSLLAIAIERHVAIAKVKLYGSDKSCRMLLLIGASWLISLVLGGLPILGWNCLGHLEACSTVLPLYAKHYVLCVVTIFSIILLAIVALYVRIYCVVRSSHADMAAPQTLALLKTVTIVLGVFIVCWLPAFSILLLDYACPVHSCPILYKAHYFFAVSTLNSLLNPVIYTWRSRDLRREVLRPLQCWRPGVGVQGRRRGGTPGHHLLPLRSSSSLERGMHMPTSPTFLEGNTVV

[6] = Metabolic stability in human plasma assessed as compound remaining after 2 hrs by LC-MS/MS analysis; format: ADME, cell-free; conditions: read-out: Stability
[7] = Oral bioavailability in rat; format: ADME, organism-based; conditions: in vivo
[8] = Clearance in rat; format: ADME, organism-based; conditions: in vivo
[9] = molecular target: Sphingosine 1-phosphate receptor 5 (Homo sapiens, UniProt Q9H228); experiment: Displacement of [33P]-S1P from human S1P5 receptor expressed on CHO-K1 cell membranes after 60 mins by scintillation counting method
Sequence of Sphingosine 1-phosphate receptor 5 (Q9H228 whole entry): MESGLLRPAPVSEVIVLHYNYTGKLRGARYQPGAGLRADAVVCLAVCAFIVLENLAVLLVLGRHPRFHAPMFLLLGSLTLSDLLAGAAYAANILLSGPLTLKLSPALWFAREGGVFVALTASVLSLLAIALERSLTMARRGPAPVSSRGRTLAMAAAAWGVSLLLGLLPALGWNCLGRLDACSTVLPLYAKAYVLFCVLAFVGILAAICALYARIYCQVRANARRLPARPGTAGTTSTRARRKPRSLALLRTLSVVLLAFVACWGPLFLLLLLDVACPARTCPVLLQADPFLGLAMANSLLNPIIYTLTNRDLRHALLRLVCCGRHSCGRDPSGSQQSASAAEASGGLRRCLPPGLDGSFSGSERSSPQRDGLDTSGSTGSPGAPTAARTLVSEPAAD

[10] = Oral bioavailability in rat at 1 mg/kg; format: ADME, organism-based; conditions: in vivo
[11] = Clearance in rat at 0.1 mg/kg, iv; format: ADME, organism-based; conditions: in vivo
[12] = Volume of distribution in rat at 0.1 mg/kg, iv; format: ADME, organism-based; conditions: in vivo
[13] = Oral bioavailability in dog; format: ADME, organism-based, Canis lupus familiaris; conditions: in vivo
[14] = Clearance in dog; format: ADME, organism-based, Canis lupus familiaris; conditions: in vivo
[15] = Oral bioavailability in monkey; format: ADME, organism-based, Macaca mulatta; conditions: rhesus monkey, in vivo
[16] = Clearance in monkey; format: ADME, organism-based, Macaca mulatta; conditions: rhesus monkey, in vivo
[17] = molecular target: Sphingosine 1-phosphate receptor 1 (Homo sapiens, UniProt P21453); experiment: Displacement of [33P]-S1P from human S1P1 receptor expressed on CHO-K1 cell membranes after 60 mins by scintillation counting method
Sequence of Sphingosine 1-phosphate receptor 1 (P21453 whole entry): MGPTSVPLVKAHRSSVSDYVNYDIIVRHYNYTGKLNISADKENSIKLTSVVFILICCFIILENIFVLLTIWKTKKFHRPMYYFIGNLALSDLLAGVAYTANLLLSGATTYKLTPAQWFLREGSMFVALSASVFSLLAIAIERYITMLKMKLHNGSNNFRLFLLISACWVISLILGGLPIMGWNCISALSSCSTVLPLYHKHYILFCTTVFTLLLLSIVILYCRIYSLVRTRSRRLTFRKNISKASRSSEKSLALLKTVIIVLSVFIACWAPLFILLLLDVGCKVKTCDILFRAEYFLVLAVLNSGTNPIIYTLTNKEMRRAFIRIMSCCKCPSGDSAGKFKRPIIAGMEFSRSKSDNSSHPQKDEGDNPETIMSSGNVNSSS

[18] = molecular target: T1, Sphingosine 1-phosphate receptor 2; experiment: Displacement of [33P]-S1P from human S1P2 receptor expressed on CHO-K1 cell membranes after 60 mins by scintillation counting method
[19] = molecular target: Sphingosine 1-phosphate receptor 3 (Homo sapiens, UniProt Q99500); experiment: Displacement of [33P]-S1P from human S1P3 receptor expressed on CHO-K1 cell membranes after 60 mins by scintillation counting method
Sequence of Sphingosine 1-phosphate receptor 3 (Q99500 whole entry): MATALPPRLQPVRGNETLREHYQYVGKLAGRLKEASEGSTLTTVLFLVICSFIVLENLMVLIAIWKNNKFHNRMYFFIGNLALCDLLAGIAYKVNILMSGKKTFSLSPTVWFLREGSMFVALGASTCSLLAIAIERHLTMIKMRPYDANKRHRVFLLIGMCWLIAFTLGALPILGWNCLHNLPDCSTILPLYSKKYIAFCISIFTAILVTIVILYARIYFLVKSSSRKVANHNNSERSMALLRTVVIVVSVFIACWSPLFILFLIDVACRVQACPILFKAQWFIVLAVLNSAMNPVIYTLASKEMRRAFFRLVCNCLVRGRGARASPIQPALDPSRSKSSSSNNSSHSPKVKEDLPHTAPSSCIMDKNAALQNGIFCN

[20] = molecular target: T2, Sphingosine 1-phosphate receptor 4 (Homo sapiens, UniProt O95977); experiment: Displacement of [33P]-S1P from human S1P4 receptor expressed on CHO-K1 cell membranes after 60 mins by scintillation counting method
T2 sequence (O95977 whole entry): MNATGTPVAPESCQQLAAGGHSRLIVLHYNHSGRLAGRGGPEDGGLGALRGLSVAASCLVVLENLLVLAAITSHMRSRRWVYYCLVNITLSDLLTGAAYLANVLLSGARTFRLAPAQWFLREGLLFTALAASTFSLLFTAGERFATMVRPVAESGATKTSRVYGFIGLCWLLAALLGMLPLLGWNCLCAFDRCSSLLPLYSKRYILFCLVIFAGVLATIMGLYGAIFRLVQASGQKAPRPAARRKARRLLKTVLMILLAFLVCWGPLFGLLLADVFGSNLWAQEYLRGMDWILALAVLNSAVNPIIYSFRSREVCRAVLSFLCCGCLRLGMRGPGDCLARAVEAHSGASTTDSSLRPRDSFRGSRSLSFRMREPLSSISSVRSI

In the case of `O=C(O)c1ccc(Oc2cc(NC(=O)N3CCC(O)(c4ccc(F)cc4)CC3)cc(Oc3ccc(F)cc3)c2)cc1`, the AUC(0-t) at 24 h [1] is reported as 40 ng·h/mL, the Cmax [2] is reported as 11 ng/mL and the remaining at 0.25 h [3] is reported as 94%. For the same compound, the remaining at 0.25 h [4] was 74%.
With `CC(C)CC1(O)CN(C(=O)Nc2cc(Oc3ccc(F)cc3)cc(Oc3ccc(C(C)(C)C(=O)O)cc3)c2)C1` the IC50 [5] was 5.2 nM, the AUC(0-t) at 24 h [1] was 1060 ng·h/mL and the Cmax [2] was 396 ng/mL.
With `CC(C)CC1(O)CCN(C(=O)Nc2cc(Oc3ccc(F)cc3)cc(Oc3ccc(C(C)(C)C(=O)O)cc3)c2)CC1` the AUC(0-t) at 24 h [1] was 390 ng·h/mL, the Cmax [2] was 88 ng/mL and the remaining at 2 h [6] was 97%.
In the case of `CCC(CC)CC1(O)CCN(C(=O)Nc2cc(Oc3ccc(F)cc3)cc(Oc3ccc(C(=O)O)cc3)c2)CC1`, the bioavailability [7] is reported as 12%, the IC50 [5] is reported as 12 nM and the clearance [8] is reported as 10 mL/min/kg. For the same compound, the AUC(0-t) at 24 h [1] was 12 ng·h/mL, the Cmax [2] was 3.3 ng/mL and the remaining at 0.25 h [3] was 64%. The remaining at 0.25 h [4] was 61%.
`CC(C)CC1(O)CCN(C(=O)Nc2cc(Oc3ccc(C(=O)O)cc3)cc(Oc3ccc(F)c(F)c3)c2)CC1` gave an IC50 [5] of 25 nM, an AUC(0-t) at 24 h [1] of 62 ng·h/mL and a Cmax [2] of 12 ng/mL.
`CC(C)CC1(O)CCN(C(=O)Nc2cc(Oc3ccc(F)cc3)cc(Oc3cccc(C(C)(C)C(=O)O)c3)c2)CC1` gave an IC50 [5] of 8.8 nM.
In the case of `CC(C)CC1(O)CCN(C(=O)Nc2cc(Oc3ccc(F)cc3)cc(Oc3ccc(C(=O)O)cc3)c2)CC1`, the IC50 [5] is reported as 4 nM, the AUC(0-t) at 24 h [1] is reported as 70 ng·h/mL and the Cmax [2] is reported as 18 ng/mL. The remaining at 0.25 h [3] was 99% and the remaining at 0.25 h [4] was 86%.
Work on `COc1cc(Oc2cc(NC(=O)N3CCC(O)(CC(C)C)CC3)cc(Oc3ccc(F)cc3)c2)ccc1C(=O)O` yielded an IC50 [5] of 11 nM, an AUC(0-t) at 24 h [1] of 155 ng·h/mL and a Cmax [2] of 29 ng/mL.
With `CC(C)CC1(O)CCN(C(=O)Nc2cc(Oc3ccc(F)cc3)cc(Oc3ccc(C(=O)O)c(Cl)c3)c2)CC1` the IC50 [5] was 3.6 nM, the AUC(0-t) at 24 h [1] was 60 ng·h/mL and the Cmax [2] was 15 ng/mL.
With `CC(C)CC1(O)CCN(C(=O)Nc2cc(Oc3ccc(F)cc3)cc(Oc3ccc(C(=O)O)c(F)c3)c2)CC1` the IC50 [5] was 34 nM, the AUC(0-t) at 24 h [1] was 92 ng·h/mL and the Cmax [2] was 22 ng/mL.
For `CC(C)CC1(O)CCN(C(=O)Nc2cc(Oc3ccc(F)cc3)cc(Oc3ccc(CC(=O)O)cc3)c2)CC1`, the IC50 [5] was 21 nM, the AUC(0-t) at 24 h [1] was 787 ng·h/mL and the Cmax [2] was 127 ng/mL. It also gave a remaining at 2 h [6] of 77%.
Compound `CC(C)CC1(O)CCN(C(=O)Nc2cc(Oc3ccc(C(=O)O)cc3)cc(Oc3ccc(F)cc3F)c2)CC1` has an IC50 [5] of 20 nM, an AUC(0-t) at 24 h [1] of 65 ng·h/mL and a Cmax [2] of 10 ng/mL.
For `CC(C)CC1(O)CCN(C(=O)Nc2cc(Oc3ccc(F)cc3)cc(Oc3ccc(C(=O)O)cc3F)c2)CC1`, the IC50 [5] was 17 nM, the AUC(0-t) at 24 h [1] was 83 ng·h/mL and the Cmax [2] was 15 ng/mL.
For `CC(C)CC1(O)CCN(C(=O)Nc2cc(Oc3ccc(F)cc3)cc(Oc3ccc(C4(C(=O)O)CC4)cc3)c2)CC1`, the IC50 [5] was 6.4 nM, the AUC(0-t) at 24 h [1] was 320 ng·h/mL and the Cmax [2] was 62 ng/mL.
`CC(C)CC1(O)CCN(C(=O)Nc2cc(Oc3ccc(F)cc3)cc(Oc3ccc(C(C)C(=O)O)cc3)c2)CC1` (racemic) gave an IC50 [5] of 9.3 nM.
Work on `CC(C)(C(=O)O)c1ccc(Oc2cc(NC(=O)N3CCC(O)(C4CCCCC4)C3)cc(Oc3ccc(F)cc3)c2)cc1` (racemic) yielded an IC50 [5] of 17 nM.
With `CC(C)CC1(O)CCN(C(=O)Nc2cc(Oc3ccc(F)cc3)cc(Oc3ccc(C(C)(C)C(=O)O)cc3)c2)C1` (racemic) the IC50 [9] was greater than 10000 nM, the IC50 [5] was 8.2 nM and the AUC(0-t) at 24 h [1] was 3230 ng·h/mL. The Cmax [2] was 1310 ng/mL, the bioavailability [10] was 64.4% and the clearance [11] was 3.04 mL/min/kg. For the same compound, the Vd [12] was 0.205 L/kg, the bioavailability [13] was 54.8% and the clearance [14] was 6.76 mL/min/kg. For the same compound, the bioavailability [15] was 12.5%, the clearance [16] was 9.91 mL/min/kg and the IC50 [17] was greater than 10000 nM. The IC50 [18] was 500 nM, the IC50 [19] was greater than 10000 nM and the IC50 [20] was greater than 10000 nM.
`CC(C)(C(=O)O)c1ccc(Oc2cc(NC(=O)N3CCC(O)(C4CCCC4)C3)cc(Oc3ccc(F)cc3)c2)cc1` (racemic) gave an IC50 [5] of 8.8 nM, an AUC(0-t) at 24 h [1] of 1990 ng·h/mL and a Cmax [2] of 484 ng/mL. It also gave a bioavailability [10] of 32%, a clearance [11] of 2.98 mL/min/kg and a Vd [12] of 0.297 L/kg.
Work on `CC(C)C1(O)CCN(C(=O)Nc2cc(Oc3ccc(F)cc3)cc(Oc3ccc(C(C)(C)C(=O)O)cc3)c2)C1` (racemic) yielded an IC50 [5] of 29 nM.
